Like-named read-outs stand apart in the source and are kept apart here.
Key:
[1] = Shelf life of UP resin A containing a photoinitiator, stored at 60° C. (Table 3); type: physicochemical; conditions: 0.2% initiator, dark
Procedure: (§1) To test the shelf life, 6.6 ml of each of the UP resins A, B and C (cf. Example 5) with an initiator content of 0.2% were introduced into brown sample bottles, and the closed bottles were stored at 60° C. At intervals of about 12 hours, the bottles were turned to determine whether gel particles had formed. As a measure of the shelf life, Table 3 gives the maximum storage time at which gel particles were still not observed.
(§2) In addition to the comparative compounds I, II and III, compound V below was also tested: V 2,4,6-trimethylbenzoyldiphenylphosphine oxide as described in U.S. Pat. No. 4,265,723.
(§3) The numbering scheme of the compounds in Table 3 is based on that of Table 1.

[2] = Shelf life of UP resin B containing a photoinitiator, stored at 60° C. (Table 3); type: physicochemical; conditions: 0.2% initiator, dark
Procedure: as §1, §2, §3

[3] = Hardening activity in UP resins, overall comparison
Procedure: (§4) To measure the hardening activity, the temperature curve for the unsaturated polyester resin (UP resin) was recorded during exposure to UV light. […] To avoid heat losses during the exposure to UV light, the lid was embedded in rigid expanded polyurethane foam. The UV light source used comprised 5 fluorescent tubes (TLAK 40 W/05 from Philips) side by side, at a distance of 8.5 cm from the UP resin surface.
(§5) The hardening time HT25° C.-T.sbsb.max and the maximum hardening temperature Tmax achieved were obtained, as characteristic parameters for the hardening activity, from the recorded temperature/time curves. The hardening time is the interval in which the sample temperature increases from 25° C. to Tmax.
(§6) The Examples and Comparative Examples were carried out using the following unsaturated polyester resins:
(§7) The hardening activity of the novel compounds 1 to 16 (cf. Table 1) was compared with the properties of the following compounds: […]

[4] = Shelf life of UP resin C containing a photoinitiator, stored at 60° C. (Table 3); type: physicochemical; conditions: 0.2% initiator, dark
Procedure: as §1, §2, §3

[5] = Hardening activity of UP resin B under UV light, temperature/time curve (Table 2); conditions: 0.2% compound
Procedure: as §4, §5, §6
Resin B was a 67% strength solution, in styrene, of an unsaturated polyester of maleic acid, tetrahydrophthalic acid and diethylene glycol in the molar ratio of 1:0.5:1.5, the solution being stabilized with 0.01% of hydroquinone.
as §7

[6] = Hardening activity of UP resin A under UV light, temperature/time curve (Table 2); conditions: 0.2% compound
Procedure: as §4, §5, §6
Resin A was a 65% strength solution, in styrene, of an unsaturated polyester of maleic acid, o-phthalic acid, ethylene glycol and propylene 1,2-glycol in the molar ratio of 1:2:2.3:0.70, the solution being stabilized with 0.01% of hydroquinone.
as §7

[7] = Hardening activity of UP resin C under UV light, temperature/time curve (Table 2); conditions: 0.2% compound
Procedure: as §4, §5, §6
Resin C was a 66% strength solution, in styrene, of an unsaturated polyester of maleic acid, o-phthalic acid and propylene 1,2-glycol in the molar ratio of 1:0.5:1.5, the solution being stabilized with 0.01% of hydroquinone.
as §7

[8] = Minimum exposure time for faultless reproduction of the 3% tonality on photopolymerizable printing plate (Table 7); conditions: 2 parts photoinitiator; UV about 3,300 μW/cm^2
Procedure: 60 parts by weight of a 1:1:1 copolyamide consisting of PA-6, PA-6.6 and PA-6.13, 30 parts by weight of ethylene glycol bis-(N-methylolacrylamide) ether, 10 parts by weight of benzenesulfonic acid N-(n-butyl)-amide, 150 parts by weight of methanol, 20 parts by weight of water, 0.02 part by weight of a chromium complex dye (CI No. 12,195), 0.3 part by weight of potassium N-nitrosocyclohexylhydroxylamine and 2 parts by weight of the photoinitiator given in Table 7 were dissolved at about 70° C. The photopolymerizable material was brought to a solids content of about 65% by distilling off part of the solvent and was then cast, at 60° C., on to a strip of steel sheet provided with an adhesive, and drying was effected in a drying oven for about 2 hours at 80° C. The resulting photopolymerizable printing plate contained a 0.5 mm thick layer with a solids content of about 95%.
Using a test negative which had, inter alia, 54 screen lines, per centimeter, of 3% tonality, the plate was exposed to a UV light intensity of about 3,300 μW/cm^2 on a flat-plate exposure unit equipped with superactinic fluorescent tubes. The unexposed parts of the plate which were protected from the UV light by the opaque image elements of the negative were then washed out in a spray washer for 5 minutes at 30° C. and under a spray pressure of 5 bar, using an ethanol/water mixture containing 80% of ethanol. The plate was thereafter dried for 6 minutes at 110° C. The minimum exposure time required for faultless reproduction of the 3% tonality was measured, and the results for various photoinitiators are summarized in Table 7.

[9] = Hardening rate of UV-exposed finish by Konig pendulum method (DIN 53,157) (Table 4); conditions: for Damping of pendulum: 2 parts photoinitiator
Procedure: An unsaturated polyester was prepared by esterifying 143 parts of tetrahydrophthalic anhydride and 175 parts of maleic anhydride with 260 parts of diethylene glycol. 0.01% of hydroquinone was added, and thereafter a 64% strength solution of the polyester in styrene was prepared (solution D).
For the UV hardening experiments, 10 parts of styrene and 2 parts of the photoinitiator were added to 100 parts of solution D, and the finish was applied to photographic paper on a hardboard base by means of a film spreader (slotwidth 200 μm)
The film was dried in air for about 1 minute and then exposed to light from a 30 watt high pressure mercury vapor lamp of 1 cm arc length (Philips HTQ 7) located 15 cm above the object.
The hardening rate was determined by the Konig pendulum method (DIN 53,157), and is given in Table 4 together with the color measurements carried out on the hardened films.
The numbering scheme for the photoinitiators is based on that of Table 1 and Example 6.

[10] = type: physicochemical; conditions: 80° C., closed ampoule
Procedure: 294 parts of partially hydrolyzed polyvinyl acetate (degree of hydrolysis 82 mole %, average degree of polymerization 500) were dissolved in 294 parts of demineralized water at 90° C. by stirring the mixture for several hours. The solution was cooled to 70° C., and therafter 20 parts of 1,1,1-trimethylolpropane triacrylate, 1,0 part of 2,6-di-tert.-butyl-p-cresol and the amount of photoinitiator given in table 6, dissolved in 230 parts of 2-hydroxyethyl methacrylate, were added, with stirring. The homogeneous viscous solution was filtered, and dehydrated and degassed under reduced pressure. A 550 μm thick, nontacky layer was obtained by applying the solution onto steel sheet provided with an adhesive, and drying the layer for 24 hours at room temperature. The printing plate was pre-exposed for 2 seconds and thereafter exposed inagewise, through a negative, to light from a commercial 5 kW exposure unit for the times given in table 6.
The thermal stability of the photosensitive solutions was determined by storing a sample in a closed ampoule at 80° C. In comparison with compound V, the novel photoinitiators improved the stability of the photosensitive mixture by a factor of 2 (see Table 6), with otherwise very similar behavior.

[11] = Shelf life of resins containing the compounds, overall comparison; type: physicochemical; conditions: Table 3, in words
Procedure: as §1, §2

[12] = Photopolymerization of monomer emulsion, properties of resulting polymer dispersions (Table 5); conditions: for Fikentscher K value / Residual monomers, ethyl acrylate / Residual monomers, methyl acrylate / Solids content: 60 min exposure
Procedure: A monomer emulsion was prepared from 50 parts of methyl acrylate, 50 parts of ethyl acrylate, 1.3 parts of a 40% strength C15 -paraffin sulfonate, 1.3 parts of an adduct of isooctylphenol with 25 units of ethylene oxide (20% strength) and 210 parts of water in a conventional mixing unit.
This emulsion was introduced into a 1 l glass flask provided with an internal thermometer and a stirrer, and was freed from oxygen by twice evacuating the flask and gassing the emulsion with nitrogen. X parts of the photoinitiator in 6.7 parts of water were added, and the reaction vessel was then exposed for 60 minutes to light from a high pressure mercury vapor lamp of Type HQL/R 400 W from Osram, located 30 cm above the vessel. The beginning of polymerization was evident from an increase in the temperature. The amounts of photoinitiator employed and the properties of the resulting polymer dispersions are summerized in Table 5, photoinitiator 4 (cf. Table 1) being compared with photoinitiator VI (described in U.S. Pat. No. 4.257,859).

COP(=O)(C(=O)c1c(C)cc(C)cc1C)c1ccccc1 (centres unmarked) [I, methyl 2,4,6-trimethybenzoylphenylphosphinate, reference compound]
Shelf life [1]: 180 h
Shelf life [2]: 155 h
hardening activity compared with the novel compounds ([3]; see Example 5, in words): substantially less active hardener
Shelf life [4]: 180 h
hardening time HT 25°-Tmax [5]: 5/23
maximum hardening temperature Tmax [5]: 127 °C
hardening time HT 25°-Tmax [6]: 7/45
maximum hardening temperature Tmax [6]: 114 °C
hardening time HT 25°-Tmax [7]: 6/53
maximum hardening temperature Tmax [7]: 123 °C

Cc1cc(C)c(C(=O)P(=O)(c2ccccc2)c2ccccc2)c(C)c1 [V, 2,4,6-trimethylbenzoyldiphenylphosphine oxide, reference compound]
Shelf life [1]: 140 h
Shelf life [2]: 140 h
Minimum exposure time required for reproducing the 3% tonality [8]: 190 s
Damping of pendulum ([9]; exposure time 5 s): 43
Damping of pendulum ([9]; exposure time 10 s): 66
Damping of pendulum ([9]; exposure time 15 s): 84
Damping of pendulum ([9]; exposure time 20 s): 102
Damping of pendulum ([9]; exposure time 25 s): 112
Shelf life [4]: 120 h
Stability ([10]; 4 parts of compound): 15 h

COP(=O)([O-])C(C)=O.[Na+] [IV, monosodium monomethylacetylphosphonate, reference compound]
suitability for photohardening ([3]; Table 2, in words): unsuitable for photohardening
hardening outcome (footnote to Tmax) [6]: not hardened
hardening time HT 25°-Tmax [6]: 13/15
maximum hardening temperature Tmax [6]: 30 °C

Cc1cc(C)c(C(=O)P(=O)([O-])c2ccccc2)c(C)c1.[Na+] [Compound 4, Sodium 2,4,6-trimethylbenzoylphenylphosphinate]
Shelf life [1]: 190 h
Minimum exposure time required for reproducing the 3% tonality [8]: 115 s
hardening time HT 25°-Tmax [5]: 4/37
maximum hardening temperature Tmax [5]: 125 °C
Stability ([10]; 6 parts of compound): 34 h
hardening time HT 25°-Tmax [6]: 5/53
maximum hardening temperature Tmax [6]: 117 °C
shelf life of resins compared with compounds II, III and V [11]: substantially superior
shelf life of resins compared with resins containing I [11]: not significantly different
Fikentscher K value ([12]; 0.04 parts X employed): 156.8
Residual monomers, ethyl acrylate ([12]; 0.04 parts X employed): 0.019%
Residual monomers, methyl acrylate ([12]; 0.04 parts X employed): 0.051%
Solids content ([12]; 0.04 parts X employed): 31.3%
Fikentscher K value ([12]; 1.7 parts X employed): 146.6
Residual monomers, ethyl acrylate ([12]; 1.7 parts X employed): < 0.005%
Residual monomers, methyl acrylate ([12]; 1.7 parts X employed): 0.005%
Solids content ([12]; 1.7 parts X employed): 31.4%
activity compared with photoinitiator VI ([12]; same K value of dispersions, in words): higher activity
content of residual monomers compared with photoinitiator VI ([12]; same starting concentration, in words): substantially lower content of residual monomers
initiation of photopolymerization at very low starting concentrations ([12]; very low starting concentrations, in words): permits photopolymerization even at very low starting concentrations
hardening time HT 25°-Tmax [7]: 5/23
maximum hardening temperature Tmax [7]: 122 °C

Cc1cc(C)c(C(=O)P(=O)(O)c2ccccc2)c(C)c1 [Compound 12, Methyldiethanolammonium 2,4,6-trimethylbenzoylphenylphosphinate]
hardening activity compared with compound V ([9]; Table 4, in words): substantially more active hardener
Damping of pendulum ([9]; exposure time 5 s): 71
Damping of pendulum ([9]; exposure time 10 s): 92
Damping of pendulum ([9]; exposure time 15 s): 112
Damping of pendulum ([9]; exposure time 20 s): 122
Damping of pendulum ([9]; exposure time 25 s): 130
hardening time HT 25°-Tmax [5]: 5/08
maximum hardening temperature Tmax [5]: 129 °C
Stability ([10]; 7 parts of compound): 28 h
hardening time HT 25°-Tmax [6]: 6/15
maximum hardening temperature Tmax [6]: 116 °C
hardening time HT 25°-Tmax [7]: 5/23
maximum hardening temperature Tmax [7]: 123 °C
